Laboratory results: patent publication US9562057B2, “(Thieno[2,3-b][1,5]benzoxazepin-4-yl)piperazin-1-yl compounds as dual activity H1 inverse agonists/5-HT2A antagonists” (Eli Lilly and Company, priority 2013, dated 2017)
Counter-ions that a name gives are not always drawn.

Tests used:
[1] = biological target: T1, recombinant 5-HT2A receptor (human) (Homo sapiens, UniProt P28223); experiment: 5-HT2A competition binding assay ([3H]-Ketanserin, SPA)
T1 construct: expressed in transfected cells; host or cells: AV-12
Description: [^3H]-Ketanserin binding experiments are carried out in SPA 96-well format. Membranes used in this assay are prepared from AV-12 cells stably expressing recombinant 5-HT2A receptor (human). The incubation is initiated by the addition of a mixture of WGA YSi SPA beads (1 mg/well, Perkin Elmer (MA, USA), RPNQ0011) and 2 μg membranes to assay buffer (67 mM Tris, 0.5 mM EDTA; pH 7.6) containing 3.1 nM [^3H]-Ketanserin and varying concentrations of the test compound (10 point concentration response curves). Non-specific binding is determined in the presence of 20 μM 1-(1-naphthyl) piperazine. Samples are incubated for 4 hr. at room temperature (22° C.) and then read in a Microbeta® Trilux.
Binding data analysis Curves are evaluated using a 4-parameter logistic nonlinear equation to obtain the concentration of competitor causing 50% inhibition of radioligand binding (IC50). Equilibrium dissociation constants (Ki) are calculated according to the equation Ki=IC50/(1+L/Kd), where L equals the concentration of radioligand used in the experiment and Kd equals the equilibrium dissociation constant of the radioligand for the receptor, determined from standard saturation analysis or homologous competition experiments. Reported values for Ki, where n values are indicated, are shown as geometric mean±the standard error of the mean (SEM), with the number of replicate determinations indicated by n. […]

5-HT2B = 5-HT2B (Homo sapiens, UniProt P41595); experiment: 5-HT2B binding
From the text: (§1) Further, the compounds of the invention may be tested in binding assays and functional activity assays by well known methods for other physiologically important receptors such as, but not limited to, the hERG channel, other serotonin receptors (specifically 5-HT1B and 5-HT1D receptors, lack of agonist activity at 5-HT2B receptors, 5-HT2C, 5-HT5, 5-HT6, and 5-HT7 receptors), dopaminergic receptors (specifically D1, D2, and D3), GABAA receptors, adrenergic receptors and monoamine transporters.

native GABAA receptors = experiment: GABAA antagonism using native receptors in primary neuronal cultures (FLIPR calcium flux); assay type: cell-based; conditions: against 10 μM GABA, rat cortical embryonic neurons
Description: Activity of compounds on native GABAA receptors is evaluated by monitoring calcium fluxes using a 96 well format FLIPR® system (Fluorometric Imaging Plate Reader (FLIPR®, Molecular Devices). Briefly, cortical embryonic neurons are dissociated from E18 rat embryos and plated at optimum density into black-walled, transparent bottom poly-D-lysine coated 96-well FLIPR® plates. After loading the cells with a calcium sensitive dye (Fluo4-AM, Molecular Devices), the cells are bathed in a solution containing low chloride (chloride replaced by gluconate). Under these conditions activation of GABAA receptors causes an efflux of chloride ions (in the direction of the chemical gradient), which results in membrane depolarization and consequently activation of voltage gated calcium channels (VGCCs). Calcium influx through VGCCs is recorded and analysed offline using the FLIPR® system. For a pharmacological validation of the assay, concentration response curves (CRC) are recorded for the standard agonist (GABA) and standard antagonist (Gabazine). […]
The antagonist effects of compounds are quantified using 10-point dose response curves by comparing the peak fluorescent responses to the agonist GABA in the presence and absence of compound. […] Antagonist effects are calculated as a percent of the assay window. […]

Dopamine D2 = Dopamine D2 (Homo sapiens, UniProt P14416); experiment: Dopamine D2 binding
From the text: as §1

Dopamine D3 = Dopamine D3 (Homo sapiens, UniProt P35462); experiment: Dopamine D3 binding
From the text: as §1

5-HT5 = 5-HT5 (Homo sapiens, UniProt P47898); experiment: 5-HT5 binding
From the text: as §1

5-HT6 = 5-HT6 (Homo sapiens, UniProt P50406); experiment: 5-HT6 binding
From the text: as §1

Adrenergic alpha1A = Adrenergic alpha1A (Homo sapiens, UniProt P35348); experiment: Adrenergic alpha1A binding
From the text: as §1

Adrenergic alpha1B = Adrenergic alpha1B (Homo sapiens, UniProt P35368); experiment: Adrenergic alpha1B binding
From the text: as §1

Adrenergic alpha2C = Adrenergic alpha2C (Homo sapiens, UniProt P18825); experiment: Adrenergic alpha2C binding
From the text: as §1

Norepinephrine Transport = Norepinephrine Transport (Homo sapiens, UniProt P23975); experiment: Norepinephrine transporter binding
From the text: as §1

5-HT2A receptor = biological target: T2, 5-HT2A receptor (Mus musculus, UniProt P35363); experiment: Inhibition of DOI induced headshake activity; assay type: in vivo; conditions: male C57BL/6J mice, 10 mg/kg PO, 3 mg/kg DOI, 60 min. pre-treatment
T2 construct: The in vivo 5-HT2A receptor antagonist activity; from tissue; host or cells: living C57BL/6J mice
Description: (see for example Bartoszyk G D, van Amsterdam C, Böttcher H, Seyfried C A. EMD 281014, a new selective serotonin 5-HT2A receptor antagonist. Eur J Pharmacol. 2003 473: 229-230.) Briefly, male C57BL/6J mice (20-25 g, Charles River) are housed in standard housing conditions ([…], 07.00 to 19.00 light phase, constant temperature (19-23° C.) and humidity (50%+/−10), ad lib food and water). Mice received either vehicle (0.25% Methyl cellulose), DOI (3 mg/kg in saline) or test compound at 10 mg/kg PO plus DOI (3 mg/kg in saline). Test compounds are individually evaluated in groups of four per experiment with n=4 for each compound, together with vehicle and DOI+vehicle (n=8). After a test compound pre-treatment time of 60 min. the mice receive either vehicle (saline) or 3 mg/kg DOI dosed subcutaneously, and are then placed into clear perspex observation chambers. […] The data is analyzed using an ANOVA and post-hoc Dunnet's Test. The compound of example 2 is tested essentially as described and is found to inhibit the DOI induced headshake response produced by 3 mg/kg DOI by 100% at 10 mg/kg.

Chain of Adrenergic alpha2C (P18825 whole entry): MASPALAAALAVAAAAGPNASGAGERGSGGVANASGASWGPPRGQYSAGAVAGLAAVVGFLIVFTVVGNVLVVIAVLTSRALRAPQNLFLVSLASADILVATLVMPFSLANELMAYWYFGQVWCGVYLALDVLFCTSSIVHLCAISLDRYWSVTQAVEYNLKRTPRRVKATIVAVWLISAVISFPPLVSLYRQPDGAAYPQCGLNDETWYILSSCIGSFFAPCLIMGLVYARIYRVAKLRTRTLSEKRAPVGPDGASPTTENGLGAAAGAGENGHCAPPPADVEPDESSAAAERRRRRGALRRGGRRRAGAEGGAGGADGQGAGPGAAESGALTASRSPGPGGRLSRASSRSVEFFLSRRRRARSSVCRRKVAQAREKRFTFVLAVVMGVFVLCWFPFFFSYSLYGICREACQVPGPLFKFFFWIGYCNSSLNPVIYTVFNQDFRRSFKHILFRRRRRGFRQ
Chain of Adrenergic alpha1A (P35348 whole entry): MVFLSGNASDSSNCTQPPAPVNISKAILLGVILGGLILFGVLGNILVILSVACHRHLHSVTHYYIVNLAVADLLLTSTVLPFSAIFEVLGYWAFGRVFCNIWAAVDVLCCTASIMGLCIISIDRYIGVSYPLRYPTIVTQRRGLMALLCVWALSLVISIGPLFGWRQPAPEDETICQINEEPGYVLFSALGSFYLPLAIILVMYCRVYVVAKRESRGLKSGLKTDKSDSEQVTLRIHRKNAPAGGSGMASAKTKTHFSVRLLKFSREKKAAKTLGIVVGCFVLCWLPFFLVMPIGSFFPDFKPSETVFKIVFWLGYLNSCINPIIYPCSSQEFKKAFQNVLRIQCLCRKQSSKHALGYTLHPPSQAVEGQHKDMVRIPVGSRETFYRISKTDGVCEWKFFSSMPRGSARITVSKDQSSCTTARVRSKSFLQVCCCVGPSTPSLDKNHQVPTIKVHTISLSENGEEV
Chain of Norepinephrine Transport (P23975 whole entry): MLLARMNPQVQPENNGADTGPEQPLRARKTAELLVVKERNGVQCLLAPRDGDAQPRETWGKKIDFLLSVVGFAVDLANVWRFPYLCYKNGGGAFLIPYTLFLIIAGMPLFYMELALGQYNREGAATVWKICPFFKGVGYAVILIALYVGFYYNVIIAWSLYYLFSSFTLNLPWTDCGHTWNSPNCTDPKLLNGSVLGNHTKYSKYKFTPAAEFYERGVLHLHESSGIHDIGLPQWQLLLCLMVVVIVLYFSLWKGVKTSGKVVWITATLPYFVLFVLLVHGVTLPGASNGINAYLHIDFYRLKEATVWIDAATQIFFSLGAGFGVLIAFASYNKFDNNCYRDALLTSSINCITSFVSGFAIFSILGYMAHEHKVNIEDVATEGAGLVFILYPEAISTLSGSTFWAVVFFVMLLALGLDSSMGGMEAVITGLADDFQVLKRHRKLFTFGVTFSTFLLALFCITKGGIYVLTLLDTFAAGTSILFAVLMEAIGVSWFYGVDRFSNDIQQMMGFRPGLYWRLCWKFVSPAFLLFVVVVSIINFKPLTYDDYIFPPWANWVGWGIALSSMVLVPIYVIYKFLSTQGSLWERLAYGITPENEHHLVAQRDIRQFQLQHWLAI
Chain of Dopamine D3 (P35462 whole entry): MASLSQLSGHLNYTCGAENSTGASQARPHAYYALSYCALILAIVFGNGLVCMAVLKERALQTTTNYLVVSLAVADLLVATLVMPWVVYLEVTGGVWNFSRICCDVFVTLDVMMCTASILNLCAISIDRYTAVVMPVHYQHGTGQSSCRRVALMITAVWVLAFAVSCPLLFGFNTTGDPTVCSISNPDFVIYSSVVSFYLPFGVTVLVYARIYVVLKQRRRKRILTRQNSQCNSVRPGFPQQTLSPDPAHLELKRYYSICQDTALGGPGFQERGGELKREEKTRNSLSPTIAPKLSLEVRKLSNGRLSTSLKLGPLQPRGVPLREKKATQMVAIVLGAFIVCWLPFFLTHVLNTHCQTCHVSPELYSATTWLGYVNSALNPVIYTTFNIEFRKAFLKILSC
T1 sequence (P28223 whole entry): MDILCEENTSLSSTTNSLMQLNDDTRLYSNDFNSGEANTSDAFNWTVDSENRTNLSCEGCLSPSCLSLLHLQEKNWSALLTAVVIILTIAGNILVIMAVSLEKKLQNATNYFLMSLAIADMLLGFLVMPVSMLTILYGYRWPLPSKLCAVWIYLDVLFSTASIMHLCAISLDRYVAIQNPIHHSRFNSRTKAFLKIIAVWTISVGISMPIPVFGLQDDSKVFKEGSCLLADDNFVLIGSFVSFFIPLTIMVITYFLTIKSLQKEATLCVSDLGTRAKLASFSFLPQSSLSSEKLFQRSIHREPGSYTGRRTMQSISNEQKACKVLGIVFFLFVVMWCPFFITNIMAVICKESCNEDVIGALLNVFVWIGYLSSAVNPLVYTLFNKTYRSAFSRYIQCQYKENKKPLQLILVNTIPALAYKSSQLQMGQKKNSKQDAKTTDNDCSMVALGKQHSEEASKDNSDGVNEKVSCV
Chain of Adrenergic alpha1B (P35368 whole entry): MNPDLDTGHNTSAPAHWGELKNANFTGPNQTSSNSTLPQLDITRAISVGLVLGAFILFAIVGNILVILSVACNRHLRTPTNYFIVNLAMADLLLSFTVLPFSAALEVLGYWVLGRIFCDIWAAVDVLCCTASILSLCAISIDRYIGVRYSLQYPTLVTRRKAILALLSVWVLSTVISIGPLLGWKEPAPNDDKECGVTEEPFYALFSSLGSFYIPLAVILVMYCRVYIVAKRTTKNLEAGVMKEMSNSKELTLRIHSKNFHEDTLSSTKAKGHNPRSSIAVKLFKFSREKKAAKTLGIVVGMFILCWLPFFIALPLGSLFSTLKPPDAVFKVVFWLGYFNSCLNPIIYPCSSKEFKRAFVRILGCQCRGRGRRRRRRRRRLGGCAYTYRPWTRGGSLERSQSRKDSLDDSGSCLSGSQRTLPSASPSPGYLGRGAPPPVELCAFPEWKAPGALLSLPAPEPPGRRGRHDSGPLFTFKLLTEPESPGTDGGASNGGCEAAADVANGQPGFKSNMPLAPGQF
Chain of Dopamine D2 (P14416 whole entry): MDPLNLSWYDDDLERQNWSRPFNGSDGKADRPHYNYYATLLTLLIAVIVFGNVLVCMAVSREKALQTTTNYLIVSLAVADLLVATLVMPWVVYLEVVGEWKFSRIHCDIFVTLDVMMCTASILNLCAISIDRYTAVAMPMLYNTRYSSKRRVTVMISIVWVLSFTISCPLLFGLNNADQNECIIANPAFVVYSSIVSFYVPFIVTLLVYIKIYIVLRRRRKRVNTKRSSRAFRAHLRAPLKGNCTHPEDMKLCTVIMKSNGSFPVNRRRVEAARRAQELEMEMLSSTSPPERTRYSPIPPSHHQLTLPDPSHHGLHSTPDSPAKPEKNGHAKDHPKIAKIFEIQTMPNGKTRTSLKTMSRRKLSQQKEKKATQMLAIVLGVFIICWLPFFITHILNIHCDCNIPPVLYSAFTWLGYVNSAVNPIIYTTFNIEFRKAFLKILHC
T2 sequence (P35363 whole entry): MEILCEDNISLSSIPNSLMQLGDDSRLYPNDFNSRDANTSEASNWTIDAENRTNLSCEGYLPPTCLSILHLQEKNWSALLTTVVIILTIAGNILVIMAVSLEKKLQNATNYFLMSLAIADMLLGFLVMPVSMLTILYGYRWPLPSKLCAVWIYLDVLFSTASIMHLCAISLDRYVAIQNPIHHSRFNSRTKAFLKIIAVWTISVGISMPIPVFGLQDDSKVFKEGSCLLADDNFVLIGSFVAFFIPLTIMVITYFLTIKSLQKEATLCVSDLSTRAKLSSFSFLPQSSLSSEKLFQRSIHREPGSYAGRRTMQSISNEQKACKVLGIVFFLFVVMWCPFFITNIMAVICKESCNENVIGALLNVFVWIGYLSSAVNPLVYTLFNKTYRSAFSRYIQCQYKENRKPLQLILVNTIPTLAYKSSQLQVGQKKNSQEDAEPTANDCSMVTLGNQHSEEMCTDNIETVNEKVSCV
Chain of 5-HT6 (P50406 whole entry, species assumed): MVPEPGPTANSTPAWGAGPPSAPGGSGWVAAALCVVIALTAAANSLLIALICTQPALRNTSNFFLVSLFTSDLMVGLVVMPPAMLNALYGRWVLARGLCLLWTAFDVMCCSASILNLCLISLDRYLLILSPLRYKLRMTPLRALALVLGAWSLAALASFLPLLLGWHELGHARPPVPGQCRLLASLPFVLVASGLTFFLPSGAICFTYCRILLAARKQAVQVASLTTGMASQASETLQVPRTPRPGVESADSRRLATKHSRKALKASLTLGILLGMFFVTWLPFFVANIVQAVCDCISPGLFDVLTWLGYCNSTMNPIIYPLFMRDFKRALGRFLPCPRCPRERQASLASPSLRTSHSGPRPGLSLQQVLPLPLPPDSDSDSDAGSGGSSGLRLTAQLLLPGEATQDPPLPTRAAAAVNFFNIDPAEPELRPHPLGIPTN
Chain of 5-HT5 (P47898 whole entry, species assumed): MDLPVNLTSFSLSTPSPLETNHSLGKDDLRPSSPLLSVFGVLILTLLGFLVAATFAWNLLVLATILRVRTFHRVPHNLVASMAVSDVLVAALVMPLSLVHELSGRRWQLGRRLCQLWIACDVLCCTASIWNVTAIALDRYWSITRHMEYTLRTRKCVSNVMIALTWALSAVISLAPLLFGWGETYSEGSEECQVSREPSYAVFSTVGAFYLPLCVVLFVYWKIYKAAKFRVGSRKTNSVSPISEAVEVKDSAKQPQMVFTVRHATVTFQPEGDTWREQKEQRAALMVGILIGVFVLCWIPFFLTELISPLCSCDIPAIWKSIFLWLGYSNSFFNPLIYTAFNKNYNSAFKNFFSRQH

With `Cc1ccc2c(c1)Oc1sc(C3CC3)cc1C(N1CCN(CC(C)(C)C(=O)O)CC1)=N2` [Example 2, 3-[4-(2-Cyclopropyl-8-methyl-thieno[2,3-b][1,5]benzoxazepin-4-yl)piperazin-1-yl]-2,2-dimethyl-propanoic acid dihydrochloride] the Ki [1] was 10.2 nM, the Ki (5-HT2B) was 118 nM and the IC50 (native GABAA receptors) was over 100 µM. It also gave a Ki (Dopamine D2) of 2320 nM, a Ki (Dopamine D3) of over 6.28 µM and a Ki (5-HT5) of 3.48 µM. For the same compound, the Ki (5-HT6) was over 5.83 µM, the Ki (Adrenergic alpha1A) was 4.62 µM and the Ki (Adrenergic alpha1B) was over 15.5 µM. The Ki (Adrenergic alpha2C) was 1380 nM, the Ki (Norepinephrine Transport) was over 671 nM and the “inhibition of DOI induced headshake response” value (5-HT2A receptor) was 100%.
